Test results as given in the NIST ThermoML archive (doi:10.1021/je900596d).

Settings: Vibrating tube method

FC(F)=C(F)C(F)(F)F [hexafluoropropene]
Settings | mass density [kg/m3]
348.12 K, 1780.6 kPa, Fluid (supercritical or subcritical phases) | 126.81
348.12 K, 1804.3 kPa, Fluid (supercritical or subcritical phases) | 129.36
348.12 K, 1829.7 kPa, Fluid (supercritical or subcritical phases) | 132.19
348.12 K, 1851.6 kPa, Fluid (supercritical or subcritical phases) | 134.57
348.12 K, 1872.9 kPa, Fluid (supercritical or subcritical phases) | 137.09
348.12 K, 1894.9 kPa, Fluid (supercritical or subcritical phases) | 139.69
348.12 K, 1917.6 kPa, Fluid (supercritical or subcritical phases) | 142.36
348.12 K, 1939.9 kPa, Fluid (supercritical or subcritical phases) | 144.88
348.12 K, 1967.9 kPa, Fluid (supercritical or subcritical phases) | 148.35
348.12 K, 1992.7 kPa, Fluid (supercritical or subcritical phases) | 151.5
348.12 K, 2016.1 kPa, Fluid (supercritical or subcritical phases) | 154.47
348.12 K, 2044.1 kPa, Fluid (supercritical or subcritical phases) | 158.31
348.12 K, 2068.5 kPa, Fluid (supercritical or subcritical phases) | 161.51
348.12 K, 2096.5 kPa, Fluid (supercritical or subcritical phases) | 165.49
348.12 K, 2143.5 kPa, Fluid (supercritical or subcritical phases) | 172.38
348.12 K, 2192.1 kPa, Fluid (supercritical or subcritical phases) | 180.05
348.12 K, 2212.1 kPa, Fluid (supercritical or subcritical phases) | 183.28
348.12 K, 2238.5 kPa, Fluid (supercritical or subcritical phases) | 187.82
348.12 K, 2266 kPa, Fluid (supercritical or subcritical phases) | 192.69
348.12 K, 2288.1 kPa, Fluid (supercritical or subcritical phases) | 196.82
348.12 K, 2310.2 kPa, Fluid (supercritical or subcritical phases) | 201.01
348.12 K, 2332.6 kPa, Fluid (supercritical or subcritical phases) | 205.6
348.12 K, 2354 kPa, Fluid (supercritical or subcritical phases) | 210.08
348.12 K, 2375.5 kPa, Fluid (supercritical or subcritical phases) | 214.74
348.12 K, 2397.3 kPa, Fluid (supercritical or subcritical phases) | 219.85
348.12 K, 2419.9 kPa, Fluid (supercritical or subcritical phases) | 225.48
348.12 K, 2442.3 kPa, Fluid (supercritical or subcritical phases) | 231.34
348.12 K, 2470.6 kPa, Fluid (supercritical or subcritical phases) | 239.59
348.12 K, 2472.8 kPa, Fluid (supercritical or subcritical phases) | 240.22
348.12 K, 2475.3 kPa, Fluid (supercritical or subcritical phases) | 241.04
348.12 K, 2478 kPa, Fluid (supercritical or subcritical phases) | 241.76
348.12 K, 2479.4 kPa, Fluid (supercritical or subcritical phases) | 242.23
348.12 K, 2481.5 kPa, Fluid (supercritical or subcritical phases) | 242.88
348.12 K, 2484.1 kPa, Fluid (supercritical or subcritical phases) | 243.75
348.12 K, 2485.5 kPa, Fluid (supercritical or subcritical phases) | 244.17
348.12 K, 2487.8 kPa, Fluid (supercritical or subcritical phases) | 244.94
348.12 K, 2490.1 kPa, Fluid (supercritical or subcritical phases) | 245.8
348.12 K, 2493.8 kPa, Fluid (supercritical or subcritical phases) | 247.53
348.12 K, 2495.7 kPa, Fluid (supercritical or subcritical phases) | 248.38
348.12 K, 2497.4 kPa, Fluid (supercritical or subcritical phases) | 248.67
348.12 K, 2498.8 kPa, Fluid (supercritical or subcritical phases) | 250.42
348.12 K, 2499.7 kPa, Fluid (supercritical or subcritical phases) | 251.97
348.12 K, 2500.9 kPa, Fluid (supercritical or subcritical phases) | 254.86
348.12 K, 2501.9 kPa, Fluid (supercritical or subcritical phases) | 260.28
348.12 K, 2502.8 kPa, Fluid (supercritical or subcritical phases) | 268.19
348.16 K, 2506.4 kPa, Liquid | 959.6
348.16 K, 2507.7 kPa, Liquid | 959.78
348.16 K, 2509 kPa, Liquid | 959.97
348.16 K, 2510.7 kPa, Liquid | 960.12
348.16 K, 2511.1 kPa, Liquid | 960.28
348.16 K, 2513.5 kPa, Liquid | 960.38
348.16 K, 2516.3 kPa, Liquid | 960.72
348.16 K, 2517 kPa, Liquid | 960.83
348.16 K, 2518.6 kPa, Liquid | 961.02
348.16 K, 2520.1 kPa, Liquid | 961.1
348.16 K, 2520.8 kPa, Liquid | 961.16
348.16 K, 2522.6 kPa, Liquid | 961.35
348.16 K, 2523.5 kPa, Liquid | 961.75
348.16 K, 2525.5 kPa, Liquid | 961.71
348.16 K, 2526.1 kPa, Liquid | 961.8
348.16 K, 2530 kPa, Liquid | 962.41
348.16 K, 2532.2 kPa, Liquid | 962.81
348.16 K, 2535.5 kPa, Liquid | 963.11
348.16 K, 2538.4 kPa, Liquid | 963.1
348.16 K, 2542.3 kPa, Liquid | 963.6
348.16 K, 2544.8 kPa, Liquid | 963.72
348.16 K, 2547.3 kPa, Liquid | 963.99
348.16 K, 2549.5 kPa, Liquid | 964.46
348.16 K, 2554.5 kPa, Liquid | 964.95
348.16 K, 2561 kPa, Liquid | 965.66
348.16 K, 2568.5 kPa, Liquid | 966.39
348.16 K, 2574.8 kPa, Liquid | 967.01
348.16 K, 2581.7 kPa, Liquid | 967.68
348.16 K, 2588.5 kPa, Liquid | 968.36
348.16 K, 2595 kPa, Liquid | 968.97
348.16 K, 2601.2 kPa, Liquid | 969.69
348.16 K, 2614.7 kPa, Liquid | 970.9
348.16 K, 2627.6 kPa, Liquid | 972.33
348.16 K, 2633.8 kPa, Liquid | 972.9
348.16 K, 2640.7 kPa, Liquid | 973.53
348.16 K, 2654.7 kPa, Liquid | 974.76
348.16 K, 2667.6 kPa, Liquid | 976.02
348.16 K, 2680.1 kPa, Liquid | 977.1
348.16 K, 2693.1 kPa, Liquid | 978.18
348.16 K, 2706.1 kPa, Liquid | 979.32
348.16 K, 2718.8 kPa, Liquid | 980.44
348.16 K, 2730.9 kPa, Liquid | 981.5
348.16 K, 2744.5 kPa, Liquid | 982.55
348.16 K, 2756.9 kPa, Liquid | 983.71
348.16 K, 2770.2 kPa, Liquid | 984.59
348.16 K, 2782.7 kPa, Liquid | 985.9
348.16 K, 2796.7 kPa, Liquid | 986.93
348.16 K, 2809.4 kPa, Liquid | 987.97
348.16 K, 2835.1 kPa, Liquid | 989.69
348.16 K, 2847.5 kPa, Liquid | 990.63
348.16 K, 2861.9 kPa, Liquid | 991.98
348.16 K, 2875.4 kPa, Liquid | 992.69
348.16 K, 2888.5 kPa, Liquid | 993.69
348.16 K, 2902.4 kPa, Liquid | 994.77
348.16 K, 2923.1 kPa, Liquid | 996.32
348.16 K, 2943.1 kPa, Liquid | 997.63
348.16 K, 2969.1 kPa, Liquid | 999.28
348.16 K, 2994.8 kPa, Liquid | 1001.06
348.16 K, 3015.4 kPa, Liquid | 1002.63
348.16 K, 3036.5 kPa, Liquid | 1004.18
348.16 K, 3061.5 kPa, Liquid | 1005.54
348.16 K, 3081.9 kPa, Liquid | 1006.76
348.16 K, 3102.2 kPa, Liquid | 1008.02
348.16 K, 3129.1 kPa, Liquid | 1009.6
348.16 K, 3135.2 kPa, Liquid | 1009.88
348.16 K, 3142.1 kPa, Liquid | 1010.13
348.16 K, 3154.2 kPa, Liquid | 1010.88
348.16 K, 3176.2 kPa, Liquid | 1012.35
348.16 K, 3202.5 kPa, Liquid | 1013.88
348.16 K, 3223.6 kPa, Liquid | 1015.07
348.16 K, 3244.1 kPa, Liquid | 1016.31
348.16 K, 3266.6 kPa, Liquid | 1017.56
348.16 K, 3287 kPa, Liquid | 1018.73
348.16 K, 3310.2 kPa, Liquid | 1020.02
348.16 K, 3316.2 kPa, Liquid | 1020.28
348.16 K, 3323.1 kPa, Liquid | 1020.54
348.16 K, 3330.6 kPa, Liquid | 1020.95
348.16 K, 3337.3 kPa, Liquid | 1021.47
348.16 K, 3343.7 kPa, Liquid | 1021.72
348.16 K, 3351.1 kPa, Liquid | 1022.04
348.16 K, 3359.3 kPa, Liquid | 1022.61
348.16 K, 3365.4 kPa, Liquid | 1022.8
348.16 K, 3373.8 kPa, Liquid | 1023.35
348.16 K, 3380 kPa, Liquid | 1023.59
348.16 K, 3386.2 kPa, Liquid | 1023.86
348.16 K, 3392.5 kPa, Liquid | 1024.46
348.16 K, 3400.2 kPa, Liquid | 1024.64
348.16 K, 3423.6 kPa, Liquid | 1025.65
